Assays:
[1] = test system: cuprizone-induced demyelination; test: Acute cuprizone mice model (PLP immunohistochemistry in corpus callosum); type: in vivo, C57BI/6 J mice; details: oral, daily, 6 mg/kg and 20 mg/kg, vs vehicle p<0.01, FIG. 5
[2] = Determination of plasma and brain exposure (brain/plasma ratio, brain Kp); type: in vivo; details: male Sprague Dawley rats, 3 mg/kg intraperitoneal, approximately 45 minutes after administration, FIG. 3
Experimental: Male Sprague Dawley rats (n=2 per time point) were used to determine the brain penetration of the compounds at 15, 45 and 120 min after 3 mg/kg of intraperitoneal administration.
At each time point, following anesthesia (inhalation of isoflurane) and blood collection (1 mL cardiac puncture into tubes containing K2EDTA) rats were exsanguinated and the brain perfused via the left ventricle (50 mL of heparinized NaCl 0.9% (0.15 UI/mL) flow 50 mL/min).
Brain was collected and weighed. Plasma was obtained from blood samples by centrifugation (3000 g for 15 min at 4° C.). Brain and plasma samples were frozen until time of analysis.
At the time of analysis, brain samples were homogenized in plasma (1:4 v:v) and together with plasma samples, following protein precipitation, were analyzed by HPLC/MS-MS analysis.

GPR17 [3] = target: T1, GPR17 (Homo sapiens, UniProt Q13304); test: Calcium mobilization functional assay (GPR17 Ca2+ assay); type: cell-based; design: host or cells: Flp-In T-REx CHO; details: CHO hGPR17 cells, inhibition of 50 nM MDL29,951, Calcium 5 dye, FLIPR; read-out: Ca2+ assay pIC50 (converted)
In short: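 Flp-In T-REx CHO cells stably expressing human GPR17, doxycycline-induced (1 μg/mL, 16-20 h), loaded 60 min with Calcium 5 dye. Inhibition by varying test-compound concentrations of the 50 nM MDL29,951 agonist response was read by fluorescence over time at room temperature. pIC50 came from 4-parameter logistic fitting.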

GPR17 [4] = target: T1, GPR17; test: cAMP accumulation functional assay (HTRF, Schild analysis); type: cell-based; design: host or cells: Flp-In T-REx CHO; details: CHO hGPR17 cells, Schild analysis vs MDL29,951, 5 μM forskolin, read-out: cAMP assay pA2 (converted)
In short: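 CHO Flp-In T-REx cells with doxycycline-induced human GPR17 were preincubated 30 min at room temperature in HBSS-HEPES pH 7.4 with antagonist. cAMP was then measured by HTRF after 60 min. MDL29,951 pEC50 shifts gave dose ratios, and Schild analysis gave pA2.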

T1 sequence (Q13304 whole entry): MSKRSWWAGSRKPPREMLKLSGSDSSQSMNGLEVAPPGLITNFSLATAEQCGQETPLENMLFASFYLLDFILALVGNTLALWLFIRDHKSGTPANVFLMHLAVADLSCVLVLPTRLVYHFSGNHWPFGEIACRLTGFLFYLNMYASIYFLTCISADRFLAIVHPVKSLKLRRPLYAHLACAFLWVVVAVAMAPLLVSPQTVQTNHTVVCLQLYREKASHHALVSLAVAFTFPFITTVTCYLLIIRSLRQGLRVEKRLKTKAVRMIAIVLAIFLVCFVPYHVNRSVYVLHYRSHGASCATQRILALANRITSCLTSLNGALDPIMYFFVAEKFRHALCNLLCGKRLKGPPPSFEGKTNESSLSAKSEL

Compound | reappearance of myelin-associated proteins (PLP levels in corpus callosum) [1] | brain concentrations versus plasma exposure [2] | IC50 (GPR17 [3]) [nM] | Kb (GPR17 [4]) [nM]
O=S(=O)(Nc1cc(F)c(Br)cc1F)c1c[nH]c2nc(Cl)ccc12 [Compound I-228, N-(4-bromo-2,5-difluorophenyl)-6-chloro-1H-pyrrolo[2,3-b]pyridine-3-sulfonamide] | accelerates the reappearance of the myelin-associated proteins |  |  | 
O=S(=O)(Nc1ccc(F)cc1F)c1c[nH]c2cc(Cl)ccc12 [Compound I-1, 6-chloro-N-(2,4-difluorophenyl)-1H-indole-3-sulfonamide] |  | displayed brain concentrations paralleling plasma exposure | > 31.6 | > 31.6

— patent US12071404B2, “Aza (indole)-, benzothiophene-, and benzofuran-3-sulfonamides” (UCB Pharma GmbH, priority 2016, dated 2024)
